The test system of series [1] is Vascular smooth muscle cells derived from rat arota. The experiment in a line: Imaging of nitric oxide produced by vascular smooth muscle cells. It is filed as cell-based. How it is done: The normal lines represent fluorescence intensity of each cell and bold lines represent the averages thereof.
Vascular smooth muscle cells derived from rat arota were cultured in a glass bottom dish, and stimulated with LPS (12.5 μg/ml), […] (150 U/ml), IL-1β (25 U/ml) and TNF-α (30 ng/ml) to induce a nitric oxide synthase. The culture was continued for about 12 hours, and then the culture medium was changed to Krebs-Ringer-phosphate buffer (KRP) in which DAR-1EE was dissolved (Example 2, 10 μM) to allow uptake of […] by the cells. The cells were cultured at 37° C. for 1 hour, and washed, and the culture medium was changed to KRP in which L-Arg or L-NMMA was dissolved. Changes in intracellular fluorescence with time was observed under a fluorescence microscope (Ex. 530-560 nm, Em. 550-610 nm, magnification: ×20).

The conditions of series [2]: buffer, pH 7.4; cited from earlier work.
Series [3] is described as follows: Changes in sensitivity (absorbance, fluorescence intensity) at varying pHs. Type of series: physicochemical. The note with it: about 1 μM in 78 mM phosphate buffer, neutral to weakly acidic, approximately pH 4; Ex. 565 nm-Em. 580 nm. How it is done:
DAR-1T was dissolved in purified water to prepare a solution of a concentration of 100 μM. The solution was added to phosphate buffer (78 mM) adjusted to each pH at a final concentration of about 1 μM, and absorbance and fluorescence intensity were measured. The measurement wavelengths of fluorescence were set to Ex. 565 nm-Em. 580 nm. In the figure, (a) represent the results of the absorptiometric measurement and (b) represents the results of fluorescence intensity measurement.

The nature of series [4]: Fluorescence maximum wavelengths. It is filed as physicochemical. From the text:
Maximum wavelengths: Ex. 565 nm-Em. 580 nm

The values below come from US6469051B2, “Diaminorhodamine derivative” (priority 1997, dated 2002).

As to `CCOC(=O)c1c(-c2c3ccc(=[N+](CC)CC)cc-3oc3cc(N(CC)CC)ccc23)ccc(N)c1N` [DAR-1EE, [9-(3,4-diamino-2-ethoxycarbonylphenyl)-6-diethylamino-3H-xanthen-3-ylidene]diethyliminium], the “intracellular fluorescence intensity with time, nitric oxide producing cells” value in series [1] (10 μM DAR-1EE loaded 1 hour at 37° C., stimulated cells (LPS, INF, IL-1β, TNF-α), 1 mM L-Arg) is recorded as “Fluorescence intensity increased with time”. Further, the “intracellular fluorescence intensity with time, cells producing no nitric oxide (non-stimulated)” value in series [1] (10 μM DAR-1EE loaded, non-stimulated cells, 1 mM L-Arg) is on record as “substantially no change in fluorescence intensity”. Also, in series [1] (10 μM DAR-1EE loaded, stimulated cells, 1 mM L-Arg+10 mM NMMA), the “intracellular fluorescence intensity with time, cells added with the NOS inhibitor” value is listed as “substantially no change in fluorescence intensity”. The “cellular uptake and intracellular hydrolysis” value in series [1] (10 μM in KRP, 37° C., 1 hour) is “uptaken into the cells and hydrolyzed”.
In the case of `CCNCCN(CC)N(O)N=O` [NOC-12], in series [2], the half life was 5.45 h.
Regarding `CCN(CC)c1ccc2c(-c3ccc4nn[nH]c4c3C(=O)O)c3ccc(=[N+](CC)CC)cc-3oc2c1` [DAR-1T, [9-(7-carboxybenzotriazol-6-yl)-6-diethylamino-3H-xanthen-3-ylidene]diethyliminium], in series [3], the “fluorescence intensity as a function of pH” value is “no changes in fluorescence intensity”. Moreover, in series [4] (emission), the “Maximum wavelength Em.” value is given as 580 nm. Also, the “Maximum wavelength Ex.” value in series [4] (excitation) came to 565 nm.
